Source: ChEMBL document CHEMBL5512651, “Synthesis and biological evaluation of 4-imidazolidinone-containing compounds as potent inhibitors of the MDM2/p53 interaction” (Eur J Med Chem, 2024)
Active and inactive are the calls of the source. The rule behind the calls is not given here.

How the values were obtained:
[1] = test system: HCT-116; assay: cells; settings: Homo sapiens, HCT-116, 96 h
[2] = target: Tumour suppressor protein p53/Mdm4 (Homo sapiens, UniProt O15151); assay: Inhibition of MDM4/p53 (unknown origin) interaction by fluorescence polarization assay; format: protein assay
Tumour suppressor protein p53/Mdm4, sequence (P04637 whole entry): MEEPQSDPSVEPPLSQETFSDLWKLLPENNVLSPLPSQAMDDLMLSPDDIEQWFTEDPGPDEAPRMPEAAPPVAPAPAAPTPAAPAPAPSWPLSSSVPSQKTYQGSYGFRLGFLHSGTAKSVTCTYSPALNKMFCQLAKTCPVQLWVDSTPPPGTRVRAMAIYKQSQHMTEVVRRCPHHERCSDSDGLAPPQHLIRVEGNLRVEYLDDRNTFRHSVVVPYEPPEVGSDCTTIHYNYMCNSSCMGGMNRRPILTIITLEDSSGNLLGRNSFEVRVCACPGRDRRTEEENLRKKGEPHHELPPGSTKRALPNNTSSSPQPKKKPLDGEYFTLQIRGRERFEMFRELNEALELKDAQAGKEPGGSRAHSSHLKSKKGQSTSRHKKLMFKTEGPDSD
Tumour suppressor protein p53/Mdm4, sequence (O15151 whole entry): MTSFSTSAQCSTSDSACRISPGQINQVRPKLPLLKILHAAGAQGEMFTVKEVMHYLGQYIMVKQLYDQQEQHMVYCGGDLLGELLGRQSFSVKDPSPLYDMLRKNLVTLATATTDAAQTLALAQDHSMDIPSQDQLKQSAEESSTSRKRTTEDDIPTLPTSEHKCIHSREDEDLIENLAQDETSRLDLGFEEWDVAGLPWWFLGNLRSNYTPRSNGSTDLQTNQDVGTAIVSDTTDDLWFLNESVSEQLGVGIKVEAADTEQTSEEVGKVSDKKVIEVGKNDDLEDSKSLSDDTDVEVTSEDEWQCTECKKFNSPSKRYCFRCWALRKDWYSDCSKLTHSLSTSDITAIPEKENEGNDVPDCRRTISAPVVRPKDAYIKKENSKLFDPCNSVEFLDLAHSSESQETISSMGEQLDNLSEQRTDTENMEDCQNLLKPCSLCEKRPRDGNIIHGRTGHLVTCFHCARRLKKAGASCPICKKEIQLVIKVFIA

[3] = target: Tumour suppressor p53/oncoprotein Mdm2 (Homo sapiens, UniProt Q00987); assay: Inhibition of MDM2/p53 (unknown origin) interaction by fluorescence polarization assay; format: protein assay
Tumour suppressor p53/oncoprotein Mdm2, sequence (P04637 whole entry): as the sequence (P04637 whole entry) above
Tumour suppressor p53/oncoprotein Mdm2, sequence (Q00987 whole entry): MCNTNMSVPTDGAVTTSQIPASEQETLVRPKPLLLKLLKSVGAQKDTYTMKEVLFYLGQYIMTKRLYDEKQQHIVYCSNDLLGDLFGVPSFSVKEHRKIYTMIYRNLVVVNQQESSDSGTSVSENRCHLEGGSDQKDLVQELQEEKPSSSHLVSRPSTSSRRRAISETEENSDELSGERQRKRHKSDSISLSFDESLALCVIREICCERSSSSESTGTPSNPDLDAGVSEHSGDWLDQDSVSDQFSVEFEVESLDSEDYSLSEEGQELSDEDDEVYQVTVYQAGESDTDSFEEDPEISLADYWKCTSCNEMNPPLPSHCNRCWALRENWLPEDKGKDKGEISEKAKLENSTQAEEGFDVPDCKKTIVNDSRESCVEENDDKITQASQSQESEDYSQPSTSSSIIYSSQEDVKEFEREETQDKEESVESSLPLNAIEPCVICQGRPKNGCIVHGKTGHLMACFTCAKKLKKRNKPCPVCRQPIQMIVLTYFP

[4] = test system: MOLM-13; assay: cells; settings: Homo sapiens, MOLM-13, 48 h
[5] = target: Cellular tumor antigen p53 (Homo sapiens) (UniProt P04637); assay: Activation of p53 pathway in human MOLM-13 cells assessed as increase in PUMA mRNA level incubated for 24 hrs by qPCR analysis; format: cell-based; settings: filed as activator, dose 0.038-0.6 µM
Cellular tumor antigen p53 (Homo sapiens), sequence (P04637 whole entry, looked up): as the sequence (P04637 whole entry) above

[6] = Selectivity index, ratio of IC50 for HEK293 cells to IC50 for human A549 cells; format: toxicity; settings: HEK293 cells versus A549 cells, read-out: Ratio IC50
[7] = test system: MOLM-13; assay: Induction of apoptosis in human MOLM-13 cells assessed as increase in caspase-3 level at 0.15 to 0.6 uM incubated for 24 hrs by Western blot analysis; format: functional, cell-based; settings: dose 0.15-0.6 µM
[8] = test system: MOLM-13; assay: Induction of apoptosis in human MOLM-13 cells assessed as increase in PARP cleavage at 0.15 to 0.6 uM incubated for 24 hrs by Western blot analysis; format: functional, cell-based; settings: dose 0.15-0.6 µM
[9] = target: Cellular tumor antigen p53 (Homo sapiens) (UniProt P04637); assay: Activation of p53 pathway in human MOLM-13 cells assessed as increase in p53 level incubated for 24 hrs by Western blot analysis; format: cell-based; settings: filed as activator, dose 0.038-0.6 µM
[10] = target: Cellular tumor antigen p53 (Homo sapiens) (UniProt P04637); assay: Activation of p53 pathway in human MOLM-13 cells assessed as increase in MDM2 mRNA level incubated for 24 hrs by qPCR analysis; format: cell-based; settings: filed as activator, dose 0.038-0.6 µM
[11] = target: Cellular tumor antigen p53 (Homo sapiens) (UniProt P04637); assay: Activation of p53 pathway in human MOLM-13 cells assessed as increase in BAX mRNA level incubated for 24 hrs by qPCR analysis; format: cell-based; settings: filed as activator, dose 0.038-0.6 µM
[12] = target: Cellular tumor antigen p53 (Homo sapiens) (UniProt P04637); assay: Activation of p53 pathway in human MOLM-13 cells assessed as increase in p21 level incubated for 24 hrs by Western blot analysis; format: cell-based; settings: filed as activator, dose 0.038-0.6 µM
[13] = test system: SW480; assay: cells; settings: Homo sapiens, SW480, 96 h
[14] = test system: A549; assay: cells; settings: Homo sapiens, A549, 96 h
[15] = target: Cellular tumor antigen p53 (Homo sapiens) (UniProt P04637); assay: Activation of p53 pathway in human MOLM-13 cells assessed as increase in p21 mRNA level incubated for 24 hrs by qPCR analysis; format: cell-based; settings: filed as activator, dose 0.038-0.6 µM
[16] = Antiproliferative activity against HEK293 cells incubated for 4 days by CCK8 assay; format: toxicity, cell-based; settings: human
[17] = Selectivity index, ratio of IC50 for HEK293 cells to IC50 for human SW480 cells
[18] = test system: HeLa; assay: cells; settings: Homo sapiens, 96 h
[19] = target: Cellular tumor antigen p53 (Homo sapiens) (UniProt P04637); assay: Activation of p53 pathway in human MOLM-13 cells assessed as increase in MDM2 level incubated for 24 hrs by Western blot analysis; format: cell-based; settings: filed as activator, dose 0.038-0.6 µM
[20] = Selectivity index, ratio of IC50 for HEK293 cells to IC50 for human HeLa cells; format: toxicity; settings: HEK293 cells versus HeLa cells, read-out: Ratio IC50
[21] = test system: MOLM-13; assay: Induction of apoptosis in human MOLM-13 cells at 0.375 to 6 uM incubated for 24 hrs by Western blot analysis; format: functional, cell-based; settings: dose 0.375-6 µM

SMILES	IC50 [1] [nM]	Ki [2] [nM]	Ki [3] [nM]	IC50 [4] [nM]	also measured
COc1cc(C(=O)O)ccc1N1CN2[C@@H](CC(C)(C)C)[C@@]3(CNc4cc(Cl)ccc43)[C@@H](c3cccc(Cl)c3F)[C@@H]2C1=O	49.7	3110	3.1	0.9	
COc1cc(C(=O)O)ccc1N1CN2[C@@H](CC(C)(C)C)[C@@]3(CNc4ccc(Cl)cc43)[C@@H](c3ccccc3Cl)[C@@H]2C1=O	12700	> 27000	1090	7280	
COc1cc(C(=O)O)ccc1N1CN2[C@@H](CC(C)(C)C)[C@@]3(CNc4ccc(Cl)cc43)[C@@H](c3ccc(Cl)cc3)[C@@H]2C1=O	12800	> 27000	> 27000	8400	
CCC(C)(CC)C[C@@H]1N2CN(c3ccc(C(=O)O)cc3OC)C(=O)[C@H]2[C@H](c2cccc(Cl)c2)[C@]12CNc1cc(Cl)ccc12	165	854	1.2	28.3	
COc1cc(C(=O)O)ccc1N1CN2[C@@H](CC(C)(C)C)[C@@]3(CNc4cc(Cl)ccc43)[C@@H](c3ccc(Cl)cc3)[C@@H]2C1=O	2580	> 27000	27.9	2200	
COc1cc(C(=O)O)ccc1N1CN2[C@@H](CC(C)(C)C)[C@@]3(CNc4cc(Cl)ccc43)[C@@H](c3cccc(C)c3)[C@@H]2C1=O	844	2170	5.2	295	
COc1cc(C(=O)O)ccc1N1CN2[C@@H](CC3(C)CCCC3)[C@@]3(CNc4cc(Cl)ccc43)[C@@H](c3cccc(Cl)c3)[C@@H]2C1=O	121	734	0.6	17	
COc1cc(C(=O)O)ccc1N1CN2[C@@H](CC(C)(C)C)[C@@]3(CNc4cc(Cl)cnc43)[C@@H](c3cccc(Cl)c3)[C@@H]2C1=O	610	3630	1.2	204	
COc1cc(C(=O)O)ccc1N1CN2[C@@H](CC(C)(C)C)[C@@]3(CNc4cc(Cl)ccc43)[C@@H](c3ccccc3F)[C@@H]2C1=O	3900	> 27000	14.8	1640	
COc1cc(C(=O)O)ccc1N1CN2[C@@H](CC(C)(C)C)[C@@]3(CNc4cc(Cl)ccc43)[C@@H](c3cccc(F)c3)[C@@H]2C1=O	137	3950	1.2	39.8	
COc1cc(C(=O)O)ccc1N1CN2[C@@H](CC3(C)CCOCC3)[C@@]3(CNc4cc(Cl)ccc43)[C@@H](c3cccc(Cl)c3)[C@@H]2C1=O	562	3370	2.7	139	
COc1cc(C(=O)O)ccc1N1CN2[C@@H](CC(C)(C)C)[C@@]3(CNc4cc(Cl)ccc43)[C@@H](c3cccc(Cl)c3Cl)[C@@H]2C1=O	2560	5000	7.6	1370	
COc1cc(C(=O)O)ccc1N1CN2[C@@H](CC3(C)CCCCC3)[C@@]3(CNc4cc(Cl)ccc43)[C@@H](c3cccc(Cl)c3)[C@@H]2C1=O	136	> 27000	2.7	35.5	
CC(C)(C)C[C@@H]1N[C@@H](C(=O)N[C@H]2CC[C@H](O)CC2)[C@H](c2cccc(Cl)c2F)[C@]12C(=O)Nc1cc(Cl)ccc12 [SAR-405838]	227	36800		115	
COc1cccc([C@H]2[C@@H]3C(=O)N(c4ccc(C(=O)O)cc4OC)CN3[C@@H](CC(C)(C)C)[C@@]23CNc2cc(Cl)ccc23)c1	1420	> 27000	5.3	944	
CCC(C)(C)C[C@@H]1N2CN(c3ccc(C(=O)O)cc3OC)C(=O)[C@H]2[C@H](c2cccc(Cl)c2)[C@]12CNc1cc(Cl)ccc12	28.5	1130	1	5.5	Activity [5]: Dose-Dependent Effect; selectivity ratio [6]: 93; Activity [7]: Active; Activity [8]: Active; Activity [9]: Dose-Dependent Effect; Activity [10]: Dose-Dependent Effect; Activity [11]: Dose-Dependent Effect; Activity [12]: Dose-Dependent Effect; IC50 [13]: 4920 nM; IC50 [14]: 102 nM; Activity [15]: Dose-Dependent Effect; IC50 at 4 days [16]: 9530 nM; Ratio IC50 [17]: 1.9; IC50 [18]: 11800 nM; Activity [19]: Dose-Dependent Effect; selectivity ratio [20]: 0.8
COc1cc(C(=O)O)ccc1N1CN2[C@@H](CC(C)(C)C)[C@@]3(CNc4ccc(Cl)cc43)[C@@H](c3cccc(Cl)c3Cl)[C@@H]2C1=O	9740	> 27000	152	7590	
COc1cc(C(=O)O)ccc1N1CN2[C@@H](CC(C)(C)C)[C@@]3(CNc4cc(Cl)ccc43)[C@@H](c3ccccc3Cl)[C@@H]2C1=O	9060	> 27000	32.8	5490	
COc1cc(C(=O)O)ccc1N1CN2[C@@H](CC(C)(C)C(C)C)[C@@]3(CNc4cc(Cl)ccc43)[C@@H](c3cccc(Cl)c3)[C@@H]2C1=O	88.7	1120	1.3	33.1	
COc1cc(NC(=O)[C@@H]2N[C@@H](CC(C)(C)C)[C@](C#N)(c3ccc(Cl)cc3F)[C@H]2c2cccc(Cl)c2F)ccc1C(=O)O	104	1690		24.8	IC50 [13]: 5460 nM; IC50 [14]: 373 nM; IC50 at 4 days [16]: 9080 nM; IC50 [18]: 13200 nM
COc1cc(C(=O)O)ccc1N1CN2[C@@H](CC(C)(C)C)[C@@]3(CNc4cc(Cl)ccc43)[C@@H](c3cccc(C(F)(F)F)c3)[C@@H]2C1=O	6860	5740	50.5	6280	
COc1cc(C(=O)O)ccc1N1CN2[C@@H](CC(C)(C)C)[C@@]3(CNc4ccc(Cl)cc43)[C@@H](c3cccc(Cl)c3)[C@@H]2C1=O	8620	> 27000	67.4	2580	
COc1ccc(C2=N[C@@H](c3ccc(Cl)cc3)[C@@H](c3ccc(Cl)cc3)N2C(=O)N2CCNC(=O)C2)c(OC(C)C)c1 [NUTLIN-3]				199	IC50 [13]: 16400 nM; Activity [21]: Active; IC50 [14]: 2050 nM; IC50 at 4 days [16]: 26700 nM; IC50 [18]: 31400 nM
COc1cc(C(=O)O)ccc1N1CN2[C@@H](CC(C)(C)C)[C@@]3(CNc4cc(Cl)ccc43)[C@@H](c3cccc(F)c3F)[C@@H]2C1=O	285	> 27000	3.1	56.5	
COc1cc(C(=O)O)ccc1N1CN2[C@@H](CC3(C)CCC3)[C@@]3(CNc4cc(Cl)ccc43)[C@@H](c3cccc(Cl)c3)[C@@H]2C1=O	598	1770	1	380	
COc1cc(C(=O)O)ccc1N1CN2[C@@H](CC(C)(C)C)[C@@]3(CNc4cc(Cl)ccc43)[C@@H](c3ccc(F)cc3)[C@@H]2C1=O	1300	> 27000	9.6	529	
CCN1[C@@H](CC(C)(C)C)[C@@]2(CNc3cc(Cl)ccc32)[C@@H](c2cccc(Cl)c2)[C@@H]1C(=O)Nc1ccc(C(=O)O)cc1OC	13.6			0.2	
